In patent US20170312308A1, “XENON AND/OR ARGON TREATMENT AS AN ADJUNCT TO PSY[…] PSYCHIATRIC DISORDERS” (THE MCLEAN HOSPITAL CORPORATION, priority 2012, published 2017):
Entries after “also recorded” stand apart in the source; their conditions may differ.

Columns and labels:
Type in all cases: in vivo, rat
Male Sprague-Dawley rats [1] = experiment: Conditioned freezing paradigm: consolidation of fear memory (xenon exposure immediately after fear conditioning); details: for conditioned freezing to context (consolidation of fear memory) / conditioned freezing to tone (CS) (consolidation of fear memory): xenon 25% for 24 h immediately after tone+shock training, vs Air-treated, tested after exposure and retested 1 and 2 weeks later; for conditioned freezing to context (consolidation of fear memory): FIG. 1B; for conditioned freezing to tone (CS) (consolidation of fear memory): FIG. 1C
Method: (§1) An illustration of the methodology used for training and testing rats in the conditioned freezing paradigm is shown in FIG. 1 (see also Johansen et al., Cell, 2011, 147; 509-524). Male Sprague-Dawley rats (350-375 g) were housed for at least one week before the experiment. On the training day, rats were placed into a conditioning chamber, housed within a sound-attenuating cabinet (Med Associates, Georgia, Vt.), for 2 min before the onset of the conditioned stimulus (CS). The CS was a tone (5 kHz, 75 dB) that lasted for 30 s. The last 2 s of the CS were paired with a continuous foot shock (0.6 mA, the unconditioned stimulus (US)). Rats received two presentations of the CS+US (tone plus shock). After additional 30 s in the chamber, rats were randomly divided into two groups (n=4/group) and immediately placed in either the Air or xenon-exposure chambers. After 24-h of air or xenon (25%) exposure, rats were tested for retention of conditioned fear using conditioned freezing as a measure of fear. For the test, rats were placed into a different context and, 2 min later, were exposed to the tone CS (5 kHz, 75 dB) for 60 s. Freezing scores were calculated as the percentage of the total duration that the rat remained immobile (frozen) other than breathing during the first 2 min (freezing to context) and during presentation of the CS (freezing to tone). Rats were then returned to the main animal holding room (i.e. no more air or xenon exposure took place) and were retested 1 and 2 weeks later (re-test and 3rd test) as described above.

Male Sprague-Dawley rats [2] = experiment: Conditioned freezing paradigm: reconsolidation of fear memory (xenon exposure after reactivation test); details: xenon 25%, no react group (no reactivation test); for conditioned freezing to context, animals without reactivation test: FIG. 1F; for conditioned freezing to tone, animals without reactivation test: FIG. 1G
Male Sprague-Dawley rats [3] = experiment: as above; details: for conditioned freezing to context (reconsolidation of fear memory): FIG. 1D; for conditioned freezing to tone (reconsolidation of fear memory): FIG. 1E
Method: as §1
Newly formed memories, including traumatic memories, are stabilized over several hours after the acquisition for long-term storage. This process, termed consolidation, critically depends on the permanence of acquisition-induced synaptic modifications in the corresponding neural circuits and is NMDA-receptor dependent. Once retrieved, consolidated memory enters a labile state again and should be reconsolidated, or it will be diminished or lost (see Debiec, 2012). To explore the effects of xenon exposure on post-retrieval memory reconsolidation, the inventors trained and tested male Sprague-Dawley rats in the conditioned freezing paradigm described in the methods section above.
Immediately after the fear memory test (24 h post-conditioning), where animals are subjected to context and CS (tone) exposure previously paired with shock (on the training day), rats were placed in either the Air or xenon (25%) exposure chambers for 1 hr. Rats were then tested for conditioned freezing 48 hours later. […]

[4] = xenon 25% for 1 hr after reactivation test 24 h post-conditioning, re-tested 48 hours later (PR-LTM1)
[5] = xenon 25% for 1 hr after reactivation test 24 h post-conditioning, re-tested 48 hours later (PR-LTM1), listed as Xe
[6] = xenon 25% for one hour after reactivation, tested after another 48 hours (PR-LTM2)

[Xe] [xenon]
fear memory / conditioned freezing, context and cue not separated (Male Sprague-Dawley rats [1]; inhaled xenon (25%), male Sprague-Dawley rats, vs non-treated animals, FIG. 1): significantly reduces the consolidation of fear memories; also recorded: significantly reduced conditioned freezing
conditioned freezing to context (consolidation of fear memory) (Male Sprague-Dawley rats [1]): reduced levels of conditioned freezing
conditioned freezing to context (consolidation of fear memory) (Male Sprague-Dawley rats [1]; listed as Xe): significant reduction in freezing
conditioned freezing to tone (CS) (consolidation of fear memory) (Male Sprague-Dawley rats [1]): reduced levels of conditioned freezing
conditioned freezing to tone (CS) (consolidation of fear memory) (Male Sprague-Dawley rats [1]; listed as Xe): also reduced
conditioned freezing to context, animals without reactivation test (Male Sprague-Dawley rats [2]): does not block reconsolidation of conditioned fear
conditioned freezing to context, animals without reactivation test (Male Sprague-Dawley rats [2]; listed as Xe): no reduction in freezing
conditioned freezing to tone, animals without reactivation test (Male Sprague-Dawley rats [2]): does not block reconsolidation of conditioned fear
conditioned freezing to tone, animals without reactivation test (Male Sprague-Dawley rats [2]; listed as Xe): no reduction in freezing
conditioned freezing to context (reconsolidation of fear memory) (Male Sprague-Dawley rats [3]; [4]): reduces the expression of conditioned freezing; also recorded: blocks reconsolidation of conditioned fear
conditioned freezing to context (reconsolidation of fear memory) (Male Sprague-Dawley rats [3]; [5]): significantly less freezing
conditioned freezing to tone (reconsolidation of fear memory) (Male Sprague-Dawley rats [3]; [4]): reduces the expression of conditioned freezing; also recorded: blocks reconsolidation of conditioned fear
conditioned freezing to tone (reconsolidation of fear memory) (Male Sprague-Dawley rats [3]; [5]): significantly less freezing
conditioned freezing to context (reconsolidation of fear memory) (Male Sprague-Dawley rats [3]; [6]): significantly less freezing
conditioned freezing to tone (reconsolidation of fear memory) (Male Sprague-Dawley rats [3]; [6]): significantly less freezing
